Measurements: publication PMC7144195, “Synthesis, antitumor activity, and molecular docking study of 2-cyclopentyloxyanisole derivatives: mechanistic study of enzyme inhibition” (Journal of Enzyme Inhibition and Medicinal Chemistry, 2020)
Where two headings read alike, the source gives them in different places.

What was measured:
[1] = test system: HePG2, HCT-116, MCF-7, PC3, and HeLa cell lines; assay: In vitro antitumor MTT assay, panel of five human cancer cell lines (text summaries); type: cell-based; settings: for IC50: read-out: IC50, antitumor activity, range over the tested cancer cell lines
Procedure: (§1) The antitumor activity was performed by using the tetrazolium salt 3-(4,5-dimethyl-2-thiazolyl)-2,5-diphenyl-2H-tetrazolium bromide (MTT) assay in accordance with an established method.
(§2) Compounds 3a–c, 4a,b, 5a,b, 6a,b, 7a–e, 8, 9a–c, 10, 11, 12a–c, 13, and 14 were screened for their in vitro antitumor activity by using the standard 3-(4,5-dimethylthiazol-2-yl)-2,5-diphenyltetrazolium bromide (MTT) assay against five human cancers: HePG2, HCT-116, MCF-7, PC3, and HeLa cell lines. […].

HeLa cell line = assay: In vitro antitumor MTT assay, HeLa; type: cell-based
Procedure: as §1, §2

PDE4B = PDE4B (Homo sapiens, UniProt Q07343); assay: PDE4B inhibition assay; type: biochemical; settings: read-out: IC50 (µM) PDE-4B inhibition
HCT-116 cell line = assay: In vitro antitumor MTT assay, HCT-116; type: cell-based
Procedure: (§3) The antitumor activity was performed by using the tetrazolium salt 3-(4,5-dimethyl-2-thiazolyl)-2,5-diphenyl-2H-tetrazolium bromide (MTT) assay in accordance with an established method[39].

PC3 cell line = assay: In vitro antitumor MTT assay, PC3; type: cell-based
Procedure: as §3

TNF-α = TNF-α inhibition assay (human-specific sandwich ELISA); type: biochemical; settings: read-out: IC50 (µM) TNFα inhibition
Procedure: The concentration of TNF-α was measured by human-specific sandwich enzyme-linked immunosorbent assay (ELISA) in accordance with the manufacturer’s instructions (no. 589201, Cayman Chemical, Ann Arbour, MI)[43]^,[44].
TNF-α has been reported as a target for cancer treatment; presently, TNF antagonists are under clinical investigation in phase I and II trials as single agents for cancer therapy. […].

HePG2 cell line = assay: In vitro antitumor MTT assay, HePG2; type: cell-based
Procedure: as §1, §2

MCF-7 cell line = assay: In vitro antitumor MTT assay, MCF-7; type: cell-based
Procedure: as §3

COX-2 = target: T1, COX-2 (Ovis aries, UniProt P79208); assay: Colorimetric COX-2 inhibition assay (Cayman kit 560101); type: biochemical; settings: means of three determinations
T1 construct: purchased Cayman Chemical 560101
T1 sequence (P79208 17-603): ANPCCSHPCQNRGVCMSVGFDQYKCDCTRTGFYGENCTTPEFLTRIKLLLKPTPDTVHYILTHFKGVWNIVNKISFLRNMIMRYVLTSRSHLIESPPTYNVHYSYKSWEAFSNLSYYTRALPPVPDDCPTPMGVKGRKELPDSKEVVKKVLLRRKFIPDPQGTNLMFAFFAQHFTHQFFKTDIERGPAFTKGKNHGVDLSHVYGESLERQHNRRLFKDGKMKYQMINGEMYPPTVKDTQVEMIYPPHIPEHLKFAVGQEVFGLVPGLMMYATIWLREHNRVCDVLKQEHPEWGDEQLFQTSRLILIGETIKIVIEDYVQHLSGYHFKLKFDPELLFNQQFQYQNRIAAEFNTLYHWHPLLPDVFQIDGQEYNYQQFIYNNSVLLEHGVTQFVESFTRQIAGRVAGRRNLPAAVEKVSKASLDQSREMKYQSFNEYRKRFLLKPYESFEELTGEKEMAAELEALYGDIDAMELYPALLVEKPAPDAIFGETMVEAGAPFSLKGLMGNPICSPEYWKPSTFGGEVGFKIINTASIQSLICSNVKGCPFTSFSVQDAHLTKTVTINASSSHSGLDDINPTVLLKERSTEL

[2] = Homo sapiens, range over (all or some of) HePG2, HCT-116, MCF-7, PC3, HeLa
[3] = range over (all or some of) HePG2, HCT-116, MCF-7, PC3, HeLa
[4] = Homo sapiens; read-out: IC50 (µM) HeLa
[5] = Homo sapiens, HCT-116; read-out: IC50 (µM) HCT-116
[6] = Homo sapiens, PC-3; read-out: IC50 (µM) PC3
[7] = Homo sapiens, HepG2; read-out: IC50 (µM) HePG2
[8] = Homo sapiens, MCF7; read-out: IC50 (µM) MCF-7
[9] = Homo sapiens, read-out: IC50 (µM) HeLa
[10] = Homo sapiens, HCT-116, read-out: IC50 (µM) HCT-116
[11] = Homo sapiens, PC-3, read-out: IC50 (µM) PC3
[12] = Homo sapiens, HepG2, read-out: IC50 (µM) HePG2
[13] = Homo sapiens, MCF7, read-out: IC50 (µM) MCF-7

PDE4B, sequence (Q07343 whole entry): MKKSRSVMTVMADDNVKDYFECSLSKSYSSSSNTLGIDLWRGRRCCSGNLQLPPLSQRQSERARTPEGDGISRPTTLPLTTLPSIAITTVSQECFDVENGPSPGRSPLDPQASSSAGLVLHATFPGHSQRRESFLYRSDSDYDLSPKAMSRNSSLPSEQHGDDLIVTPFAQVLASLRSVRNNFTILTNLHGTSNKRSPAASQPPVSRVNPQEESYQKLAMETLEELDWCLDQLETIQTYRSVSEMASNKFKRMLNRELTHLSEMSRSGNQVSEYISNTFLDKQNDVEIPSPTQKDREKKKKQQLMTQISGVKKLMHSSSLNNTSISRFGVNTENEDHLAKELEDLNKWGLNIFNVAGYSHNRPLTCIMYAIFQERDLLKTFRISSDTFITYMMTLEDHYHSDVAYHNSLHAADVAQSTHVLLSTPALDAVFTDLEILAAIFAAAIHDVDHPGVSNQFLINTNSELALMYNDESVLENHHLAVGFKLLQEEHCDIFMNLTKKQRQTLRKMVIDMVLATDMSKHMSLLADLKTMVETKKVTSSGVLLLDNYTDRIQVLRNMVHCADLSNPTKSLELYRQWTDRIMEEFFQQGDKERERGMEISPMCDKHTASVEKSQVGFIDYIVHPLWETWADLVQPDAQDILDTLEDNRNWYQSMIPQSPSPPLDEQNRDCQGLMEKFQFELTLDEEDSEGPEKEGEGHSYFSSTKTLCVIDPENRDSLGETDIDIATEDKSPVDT

Row | Structure (SMILES) | IC50 [1, 2] | IC50 [1, 3] | IC50 (HeLa cell line; [4]) | IC50 (PDE4B) | IC50 (HCT-116 cell line; [5]) | IC50 (PC3 cell line; [6]) | melting point | IC50 (TNF-α) | IC50 (HePG2 cell line; [7]) | IC50 (MCF-7 cell line; [8]) | IC50 (COX-2) | IC50 ([1]; Homo sapiens) | IC50 (HeLa cell line; [9]) | IC50 (HCT-116 cell line; [10]) | IC50 (PC3 cell line; [11]) | IC50 (HePG2 cell line; [12]) | IC50 (MCF-7 cell line; [13]) | antitumor activity against the tested cancer cell lines (in words) ([1]; all tested cancer cell lines)
1 | COc1ccc(C=C2CN(C)CCC2=O)cc1OC1CCCC1 [Compound 4a, 3-(3-(Cyclopentyloxy)-4-methoxybenzylidene)-1-methylpiperidin-4-one] | 4.38 to 22.9 µM | 4.38 to 9.18 µM | 7.24 ± 0.7 µM | 5.62 µM | 4.38 ± 0.4 µM | 9.18 ± 0.8 µM | 253 to 255 °C | 2.01 µM | 6.04 ± 0.5 µM | 5.13 ± 0.3 µM | 3.34 µM | – | – | – | – | – | – | –
2 | COc1ccc(-c2nc3c4ccccc4c4ccccc4c3n2-c2ccccc2)cc1OC1CCCC1 [Compound 7b, 2-(3-(Cyclopentyloxy)-4-methoxyphenyl)-1-phenyl-1H-phenanthro[9,10-d]imidazole] | – | 11.8 to 22.9 µM | 17.2 ± 1.5 µM | 5.65 µM | 19.7 ± 1.4 µM | 22.9 ± 1.9 µM | 295 to 297 °C | 13.9 µM | 13.7 ± 1.2 µM | 11.8 ± 1.3 µM | 24 µM | – | – | – | – | – | – | –
3 | COc1ccc(-c2[nH]c(=S)[nH]c(=O)c2C#N)cc1OC1CCCC1 [Compound 13, 6-(3-(cyclopentyloxy)-4-methoxyphenyl)-4-oxo-2-thioxo-1,2,3,4-tetrahydropyrimidine-5-carbonitrile] | 5.86 to 20.1 µM | – | 5.86 ± 0.6 µM | 3.98 µM | 7.66 ± 0.6 µM | 11.5 ± 1.1 µM | – | 6.72 µM | 8.71 ± 0.7 µM | 6.93 ± 0.5 µM | 1.88 µM | – | – | – | – | – | – | –
4 | CCN1CCC(=O)C(=Cc2ccc(OC)c(OC3CCCC3)c2)C1 [Compound 4b, 3-(3-(Cyclopentyloxy)-4-methoxybenzylidene)-1-ethylpiperidin-4-one] | 4.38 to 22.9 µM | 7.18 to 14.3 µM | 8.56 ± 0.9 µM | 11.6 µM | 9.48 ± 0.8 µM | 14.3 ± 1.2 µM | 249 to 251 °C | 17.7 µM | 11 ± 1.1 µM | 7.18 ± 0.8 µM | 1.08 µM | – | – | – | – | – | – | –
5 | COc1ccc(-c2nc3c4ccccc4c4ccccc4c3n2-c2ccc(Cl)cc2)cc1OC1CCCC1 [Compound 7e, 2-(3-(Cyclopentyloxy)-4-methoxyphenyl)-1-(4-chlorophenyl)-1H-phenanthro[9,10-d]imidazole] | – | – | – | – | – | – | 294 to 296 °C | – | – | – | – | 29.8 to 47 µM | 38.1 ± 2.5 µM | 44.8 ± 2.3 µM | 47 ± 2.7 µM | 29.9 ± 2.1 µM | 42.4 ± 2.2 µM | –
6 | COc1ccc(C2NC(=O)NC3=C2C(=O)CC(C)(C)C3)cc1OC1CCCC1 (stereo not shown) [Compound 6a, 4-(3-(Cyclopentyloxy)-4-methoxyphenyl)-7,7-dimethyl-4,6,7,8-tetrahydroquinazoline-2,5(1H,3H)-dione] | 18.5 to 30.5 µM | – | 19.1 ± 1.7 µM | – | 30.5 ± 1.8 µM | 27.4 ± 2.1 µM | 230 to 232 °C | – | 18.5 ± 1.7 µM | 28.6 ± 1.6 µM | – | – | – | – | – | – | – | –
7 | COc1ccc(C(=S)N2CCCCC2)cc1OC1CCCC1 [Compound 9b, (3-(Cyclopentyloxy)-4-methoxyphenyl)(piperidin-1-yl)methanethione] | 24.9 to 39.1 µM | – | 28.4 ± 2.3 µM | – | 39.1 ± 2.2 µM | 31.5 ± 2.4 µM | 193 to 195 °C | – | 24.9 ± 1.9 µM | 37.1 ± 2 µM | – | – | – | – | – | – | – | –
8 | COc1ccc(-c2nc3c4ccccc4c4ccccc4c3n2-c2ccc(F)cc2)cc1OC1CCCC1 [Compound 7d, 2-(3-(Cyclopentyloxy)-4-methoxyphenyl)-1-(4-fluorophenyl)-1H-phenanthro[9,10-d]imidazole] | – | – | – | – | – | – | 290 to 292 °C | – | – | – | – | – | > 100 µM | > 100 µM | > 100 µM | > 100 µM | > 100 µM | no antitumor activity
9 | Cc1ccc(-c2cc(C(F)(F)F)nn2-c2ccc(S(N)(=O)=O)cc2)cc1 [Celecoxib, celecoxib, reference compound] | – | – | – | – | – | – | – | 6.44 µM | – | – | – | 25.6 to 36.1 µM | 36.1 ± 2.8 µM | 29.5 ± 2.1 µM | 30.7 ± 2.7 µM | 25.6 ± 2.3 µM | 31.3 ± 2.5 µM | –
